According to patent publication US20030004172A1, “Fused pyrimidinone matrix metalloproteinase inhibitors” (priority 2001, published 2003):

Each compound was assayed against MMP-13CD (catalytic domain of collagenase-3) (Homo sapiens, UniProt P45452) (assay: Thiopeptolide substrate hydrolysis inhibition assay, MMP-13CD). Settings: Table I; thiopeptolide substrate, HEPES pH 7.0, 22° C.; read-out: MMP-13CD IC50.
Type: biochemical
Description: Thiopeptolide substrates show virtually no decomposition or hydrolysis at or below neutral pH in the absence of a matrix metalloproteinase enzyme.

| Compound | IC50 [µM] |
| --- | --- |
| COc1cccc(CNC(=O)c2cc3c(=O)n(Cc4ccc(NC(C)=O)cc4)c(=O)n(C)c3s2)c1 [Example 65, 3-(4-Acetylamino-benzyl)-1-methyl-2,4-dioxo-1,2,3,4-tetrahydro-thieno[2,3-d]pyrimidine-6-carboxylic acid 3-methoxy-benzylamide] | 0.0535 |
| Cn1c(=O)n(Cc2ccc(C(=O)O)cc2)c(=O)c2cc(C(=O)NCCc3ccncc3)sc21 [Example 82, 4-[1-Methyl-2,4-dioxo-6-(2-pyridin-4-yl-ethylcarbamoyl)-1,4-dihydro-2H-thieno[2,3-d]pyrimidin-3-ylmethyl]-benzoic acid] | 3.7 |
| Cc1cc(Cn2c(=O)c3cc(C(=O)NCc4cccc(O)c4)sc3n(C)c2=O)ccc1C(=O)O [Example 250, 4-[6-(3-hydroxy-benzylcarbamoyl)-1-methyl-2,4-dioxo-1,4-dihydro-2H-thieno[2,3-d]pyrimidin-3-ylmethyl]-2-methyl-benzoic acid] | 0.00765 |
| Cn1c(=O)n(Cc2ccccc2)c(=O)c2cc(C(=O)OCCCc3cccnc3)sc21 [Example 164, 3-Benzyl-1-methyl-2,4-dioxo-1,2,3,4-tetrahydro-thieno[2,3-d]pyrimidine-6-carboxylic acid 3-pyridin-3-yl-propyl ester] | 69 |
| Cn1c(=O)n(Cc2ccc(OC(F)(F)F)cc2)c(=O)c2cc(C(=O)OCc3ccccc3)sc21 [Example 311, 1-Methyl-2,4-dioxo-3-(4-trifluoromethoxy-benzyl)-1,2,3,4-tetrahydro-thieno[2,3-d]pyrimidine-6-carboxylic acid benzyl ester] | 0.0845 |
| CC(CO)Cn1c(=O)c2cc(C(=O)OCc3ccccc3)sc2n(C)c1=O (stereo not shown) [Example 134, 3-(3-Hydroxy-2-methyl-propyl)-1-methyl-2,4-dioxo-1,2,3,4-tetrahydro-thieno[2,3-d]pyrimidine-6-carboxylic acid benzyl ester] | 1.5 |
| Cn1c(=O)n(Cc2ccccc2)c(=O)c2cc(C(=O)NCCCCc3ccccc3)sc21 [Example 338, 3-Benzyl-1-methyl-2,4-dioxo-1,2,3,4-tetrahydro-thieno[2,3-d]pyrimidine-6-carboxylic acid (4-phenyl-butyl)-amide] | > 100 |
| Cn1c(=O)n(Cc2cccc(I)c2)c(=O)c2cc(C(=O)OCc3ccccc3)sc21 [Example 109, 3-(3-Iodo-benzyl)-1-methyl-2,4-dioxo-1,2,3,4-tetrahydro-thieno[2,3-d]pyrimidine-6-carboxylic acid benzyl ester] | 0.94 |
| Cn1c(=O)n(Cc2ccccc2)c(=O)c2cc(C(=O)NCCc3ccc(Cl)cc3Cl)sc21 [Example 363, 3-Benzyl-1-methyl-2,4-dioxo-1,2,3,4-tetrahydro-thieno[2,3-d]pyrimidine-6-carboxylic acid[2-(2,4-dichloro-phenyl)-ethyl]-amide] | 30 |
| CC/C=C/Cn1c(=O)c2cc(C(=O)NCc3cccc(OC)c3)sc2n(C)c1=O [Example 286] | 0.27 |
| Cn1c(=O)n(Cc2ccccc2)c(=O)c2cc(C(=O)OCc3cccc(Oc4ccccc4)c3)sc21 [Example 182, 3-Benzyl-1-methyl-2,4-dioxo-1,2,3,4-tetrahydro-thieno[2,3-d]pyrimidine-6-carboxylic acid 3-phenoxy-benzyl ester] | 8.6 |
| COc1ccc(CNC(=O)c2cc3c(=O)n(CCS(=O)(=O)c4ccccc4)c(=O)n(C)c3s2)cc1 [Example 266] | 4 |
| Cn1c(=O)n(Cc2ccc(C(F)(F)F)cc2)c(=O)c2cc(C(=O)OCc3ccccc3)sc21 [Example 106, 1-Methyl-2,4-dioxo-3-(4-trifluoromethyl-benzyl)-1,2,3,4-tetrahydro-thieno[2,3-d]pyrimidine-6-carboxylic acid benzyl ester] | 0.59 |
| Cn1c(=O)n(Cc2ccccc2)c(=O)c2cc(C(=O)NCc3cccc(Cl)c3)sc21 [Example 332, 3-Benzyl-1-methyl-2,4-dioxo-1,2,3,4-tetrahydro-thieno[2,3-d]pyrimidine-6-carboxylic acid 3-chloro-benzylamide] | 1 |
| Cn1c(=O)n(Cc2ccccc2)c(=O)c2cc(C(=O)OCc3c(F)cccc3Cl)sc21 [Example 190, 3-Benzyl-1-methyl-2,4-dioxo-1,2,3,4-tetrahydro-thieno[2,3-d]pyrimidine-6-carboxylic acid 2-chloro-6-fluoro-benzyl ester] | > 100 |
| CCC1(COC(=O)c2cc3c(=O)n(Cc4ccccc4)c(=O)n(C)c3s2)COC1 [Example 173, 3-Benzyl-1-methyl-2,4-dioxo-1,2,3,4-tetrahydro-thieno[2,3-d]pyrimidine-6-carboxylic acid 3-ethyl-oxetan-3-ylmethyl ester] | > 100 |
| C=C(C)Cn1c(=O)c2cc(C(=O)NCc3cccc(OC)c3)sc2n(C)c1=O [Example 289] | 2.7 |
| Cn1c(=O)n(Cc2ccccc2)c(=O)c2cc(C(=O)OCCOc3ccccc3)sc21 [Example 146, 3-Benzyl-1-methyl-2,4-dioxo-1,2,3,4-tetrahydro-thieno[2,3-d]pyrimidine-6-carboxylic acid 2-phenoxyethyl ester] | 47 |
| COc1cccc(CNC(=O)c2cc3c(=O)n(CCSc4ccccc4)c(=O)n(C)c3s2)c1 [Example 287] | 1.9 |
| 3-(4-Methoxycarboxyl-butyl)-1-methyl-2,4-dioxo-1,2,3,4-tetrahydro-thieno[2,3-d]pyrimidine-6-carboxylic acid benzyl ester [Example 141] | 0.15 |
| Cn1c(=O)n(Cc2ccccc2)c(=O)c2cc(C(=O)NCc3ccccc3)sc21 [Example 148, 3-Benzyl-1-methyl-2,4-dioxo-1,2,3,4-tetrahydro-thieno[2,3-d]pyrimidine-6-carboxylic acid benzyl amide] | 0.54 |
| COc1cccc(CNC(=O)c2cc3c(=O)n(Cc4ccc(S(=O)(=O)NC5CC5)cc4)c(=O)n(C)c3s2)c1 [Example 367, 3-(4-Cyclopropylsulfamoyl-benzyl)-1-methyl-2,4-dioxo-1,2,3,4-tetrahydro-thieno[2,3-d]pyrimidine-6-carboxylic acid 3-methoxy-benzylamide] | 0.00825 |
| CCCCC(CC)Cn1c(=O)c2cc(C(=O)NCc3ccc(OC)cc3)sc2n(C)c1=O (stereo not shown) [Example 256] | 27.5 |
| Cn1c(=O)n(Cc2cccnc2)c(=O)c2cc(C(=O)OCc3ccccc3)sc21 [Example 125, 1-Methyl-2,4-dioxo-3-pyridin-3-ylmethyl-1,2,3,4-tetrahydro-thieno[2,3-d]pyrimidine-6-carboxylic acid benzyl ester] | 0.09 |
| COc1ccc(CCCOC(=O)c2cc3c(=O)n(Cc4ccccc4)c(=O)n(C)c3s2)cc1 [Example 189, 3-Benzyl-1-methyl-2,4-dioxo-1,2,3,4-tetrahydro-thieno[2,3-d]pyrimidine-6-carboxylic acid 3-(4-methoxy-phenyl)-propyl ester] | 4.9 |
| COc1ccc(CNC(=O)c2cc3c(=O)[nH]c(=O)n(C)c3s2)cc1 [Example 216] | 18 |
| Cn1c(=O)n(Cc2ccccc2)c(=O)c2cc(C(=O)NC3CC3)sc21 [Example 215, 3-Benzyl-1-methyl-2,4-dioxo-1,2,3,4-tetrahydro-thieno[2,3-d]pyrimidine-6-carboxylic acid cyclopropylamide] | 24 |
| Cn1c(=O)c2cc(C(=O)OCc3ccccc3)sc2n(C)c1=O [Example 127, 1,3-Dimethyl-2,4-dioxo-1,2,3,4-tetrahydro-thieno[2,3-d]pyrimidine-6-carboxylic acid benzyl ester] | 3.9 |
